Assay results from US20240409536A1, “COMPOUNDS AND METHODS FOR MODULATING SPLICING” (REMIX THERAPEUTICS INC., priority 2021, published 2024).
Counter-ions that a name gives are not always drawn.

Tests used:
Target C mRNA = test: Gene panel canonical junction qPCR assay, Target C CJ mRNA decrease; type: cell-based; conditions: Homo sapiens, canonical junction qPCR, read-out: Target C IC50 (decrease in CJ mRNA levels)
How it was run: (§1)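 A673 or K562 cells treated with compound; canonical exon-exon junction mRNA quantified by cDNA synthesis and RT-qPCR with junction-spanning primer/probe, normalized to GAPDH, GUSB or PPIA and DMSO (2^(−ΔΔCt)). Percent response from set ΔCt assay windows fitted to 4-parameter logistic; IC50 for CJ decrease.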

MYB mRNA = test: Gene panel canonical junction qPCR assay, MYB CJ mRNA decrease; type: cell-based, human; conditions: Homo sapiens, canonical junction qPCR, read-out: MYB IC50 (decrease in CJ mRNA levels)
How it was run: as §1

HTT mRNA = test: Splicing RT-qPCR assay, HTT canonical (CJ) and alternative (AJ) junction mRNA; type: cell-based; conditions: Homo sapiens, A673 or K562 cells, 24 hours; for IC50: decrease in canonical junction mRNA; for AC50: increase in alternative junction mRNA
How it was run: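 RT-qPCR read-out: CJ and AJ junction isoforms quantified from cell lysates, normalized to housekeeping GAPDH/GUSB (K562) or PPIA (A673). Cells had 24 h compound exposure, 11-point 3-fold series from 10 uM final, ≤0.25% DMSO.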

K562 cells = test: Cell Titer Glo 2.0 cell viability assay in K562 cells; conditions: 72 hours

Row | Structure (SMILES) | IC50 (Target C mRNA) [µM] | IC50 (MYB mRNA) [nM] | IC50 (HTT mRNA) [µM] | AC50 (HTT mRNA) [µM] | Viability (K562 cells)
1 | Cc1cnc2c(C(=O)Nc3cc(F)c4nc(C)cn4c3)ccc(N3CCC(N(C)C)CC3)c2n1 [Compound 208, 8-[4-(dimethylamino)piperidin-1-yl]-N-{8-fluoro-2-methylimidazo[1,2-a]pyridin-6-yl}-2-methylquinoxaline-5-carboxamide; bis(trifluoroacetic acid)] | > 10 | < 100 | 1 to 10 | 1 to 10 | A (A represents <100 nM)
2 | Cc1cn2cc(NC(=O)c3ccc(N4CCC(N5CCCC5)C4)c4ccnnc34)cc(F)c2n1 (stereo not shown) [Compound 133] | 1 to 10 | 1000 to 10000 | 1 to 10 | 1 to 10 | C (C represents 1000-9999 nM)
3 | Cc1cn2cc(NC(=O)c3ccc(N4C[C@@H](C)N[C@@H](C)C4)c4ccnnc34)nc(C)c2n1 [Compound 172, N-{2,8-dimethylimidazo[1,2-a]pyrazin-6-yl}-5-[(3R,5S)-3,5-dimethylpiperazin-1-yl]cinnoline-8-carboxamide] | 1 to 10 | 100 to 1000 | > 10 | > 10 | B (B represents 100-1000 nM)
4 | CN[C@@H]1CCN(c2ccc(C(=O)Nc3cc(F)c4nc(C)cn4c3)c3nccnc23)C1 (single isomer, unassigned) [Compound 193, N-{8-fluoro-2-methylimidazo[1,2-a]pyridin-6-yl}-8-[3-(methylamino)pyrrolidin-1-yl]quinoxaline-5-carboxamide] | > 10 | 100 to 1000 | > 10 | > 10 | A (A represents <100 nM)
5 | Cc1cn2cc(NC(=O)c3ccc(N4CC(C)(C)NC(C)(C)C4)c4nccnc34)cc(F)c2n1 [Compound 219, N-{8-fluoro-2-methylimidazo[1,2-a]pyridin-6-yl}-8-(3,3,5,5-tetramethylpiperazin-1-yl)quinoxaline-5-carboxamide] | 1 to 10 | < 100 | 1 to 10 | 1 to 10 | A (A represents <100 nM)
6 | Cc1cn2cc(NC(=O)c3ccc(N4CCNC5(COC5)C4)c4nccnc34)cc(F)c2n1 [Compound 372] | > 10 | 1000 to 10000 | > 10 | > 10 | C (C represents 1000-9999 nM)
7 | Cc1cn2cc(NC(=O)c3ccc(N4CCN(CCF)C5(CC5)C4)c4nccnc34)cc(F)c2n1 [Compound 370] | > 10 | 1000 to 10000 | > 10 | > 10 | D (D represents greater than 10 μM in K562 cells)
8 | CN[C@@H]1CCN(c2ccc(C(=O)Nc3cc(F)c4nc(C)cn4c3)c3nc(OC)cnc23)C1 [Compound 204, (R)—N-{8-fluoro-2-methylimidazo[1,2-a]pyridin-6-yl}-3-methoxy-8-[3-(methylamino)pyrrolidin-1-yl]quinoxaline-5-carboxamide; trifluoroacetic acid] | > 10 | 1000 to 10000 | > 10 | > 10 | A (A represents <100 nM)
9 | Cc1cnc2c(N3C[C@@H](C)N[C@@H](C)C3)ccc(C(=O)Nc3cc(F)c4nc(C)cn4c3)c2n1 [Compound 216, 8-((3R,5S)-3,5-dimethylpiperazin-1-yl)-N-{8-fluoro-2-methylimidazo[1,2-a]pyridin-6-yl}-3-methylquinoxaline-5-carboxamide] | > 10 | 100 to 1000 | 1 to 10 | > 10 | C (C represents 1000-9999 nM)
10 | Cc1cn2cc(NC(=O)c3ccc(N4CCNC(C)(C)C4)c4nccnc34)cc(F)c2n1 [Compound 220, 8-(3,3-dimethylpiperazin-1-yl)-N-{8-fluoro-2-methylimidazo[1,2-a]pyridin-6-yl}quinoxaline-5-carboxamide] | 1 to 10 | < 100 | 1 to 10 | 1 to 10 | A (A represents <100 nM)
11 | Cc1cn2cc(NC(=O)c3ccc(N4CCN[C@@H](C)C4)c4nccnc34)cc(F)c2n1 [Compound 187, N-{8-fluoro-2-methylimidazo[1,2-a]pyridin-6-yl}-8-(3-methylpiperazin-1-yl) quinoxaline-5-carboxamide] | > 10 | < 100 | 1 to 10 | 1 to 10 | B (B represents 100-1000 nM)
12 | O=C(Nc1cn[nH]c1)c1ccc(N2CCNCC2)c2ccnnc12 [Compound 126] | > 10 | > 10000 | > 10 | > 10 | 
13 | Cc1cn2cc(NC(=O)c3ccc(N4C[C@H]5CC[C@@H](C4)N5)c4ccnnc34)cc(F)c2n1 [Compound 108] | 1 to 10 | 100 to 1000 | 1 to 10 | 1 to 10 | 
14 | Cc1cn2cc(NC(=O)c3ccc(N(C)[C@@H]4C[C@H]5CC[C@@H](C4)N5)c4ccnnc34)cc(F)c2n1 [Compound 156] | > 10 | 1000 to 10000 | > 10 | > 10 | 
15 | Cc1cn2cc(NC(=O)c3ccc(N4C[C@@H](C)N[C@@H](C)C4)c4nccnc34)cc(F)c2n1 [Compound 186, 8-(3,5-dimethylpiperazin-1-yl)-N-{8-fluoro-2-methylimidazo[1,2-a]pyridin-6-yl}quinoxaline-5-carboxamide] | > 10 | < 100 | 1 to 10 | 1 to 10 | 
16 | CNC1CCN(c2ccc(C(=O)Nc3cc(F)c4nc(C)cn4c3)c3nc(OC)cnc23)C1 (stereo not shown) [Compound 202, N-{8-fluoro-2-methylimidazo[1,2-a]pyridin-6-yl}-3-methoxy-8-[3-(methylamino)pyrrolidin-1-yl]quinoxaline-5-carboxamide; bis(trifluoroacetic acid)] | > 10 |  | > 10 | > 10 | A (A represents <100 nM)

More lines, main results first:

Row | IC50 (Target C mRNA) [µM] | IC50 (MYB mRNA) [nM] | IC50 (HTT mRNA) [µM] | Structure (SMILES) | AC50 (HTT mRNA) [µM] | Viability (K562 cells)
17 | 1 to 10 | 100 to 1000 | 1 to 10 | Cc1cn2cc(NC(=O)c3ccc(N4CCN5CCC[C@H]5C4)c4ccnnc34)cc(F)c2n1 [Compound 154] | 1 to 10 | B (B represents 100-1000 nM)
18 |  | < 100 | 1 to 10 | CCC1CN(c2ccc(C(=O)Nc3cc(F)c4nc(C)cn4c3)c3nnccc23)CCN1 (stereo not shown) [Compound 130] | 1 to 10 | B (B represents 100-1000 nM)
19 | > 10 | < 100 | 1 to 10 | CC[C@@H]1CN(c2ccc(C(=O)Nc3cc(F)c4nc(C)cn4c3)c3nnccc23)CCN1 [Compound 151] | 1 to 10 | B (B represents 100-1000 nM)
20 | 1 to 10 | 100 to 1000 | 1 to 10 | CNC1CCN(c2ccc(C(=O)Nc3cc(F)c4nc(C)cn4c3)c3nc(C)ccc23)C1 (stereo not shown) [Compound 196, N-{8-fluoro-2-methylimidazo[1,2-a]pyridin-6-yl}-2-methyl-5-[3-(methylamino)pyrrolidin-1-yl]quinoline-8-carboxamide 2,2,2-trifluoroacetate] | 1 to 10 | A (A represents <100 nM)
21 | 1 to 10 | < 100 | 1 to 10 | CN[C@H]1CCN(c2ccc(C(=O)Nc3cc(F)c4nc(C)cn4c3)c3nccnc23)C1 (single isomer, unassigned) [Compound 194, N-{8-fluoro-2-methylimidazo[1,2-a]pyridin-6-yl}-8-[3-(methylamino)pyrrolidin-1-yl]quinoxaline-5-carboxamide] | 1 to 10 | A (A represents <100 nM)
22 | 1 to 10 | 100 to 1000 | 1 to 10 | CCN1CCC(c2ccc(C(=O)Nc3cc(F)c4nc(C)cn4c3)c3nnccc23)CC1 [Compound 141] | 1 to 10 | C (C represents 1000-9999 nM)
23 | 1 to 10 | 100 to 1000 | 1 to 10 | Cc1cn2cc(NC(=O)c3ccc(N4CCN(C)CC4)c4ccnnc34)cc(F)c2n1 [Compound 127] | 1 to 10 | C (C represents 1000-9999 nM)
24 | 1 to 10 | 1000 to 10000 | 1 to 10 | CNCC1CCN(c2ccc(C(=O)Nc3cc(F)c4nc(C)cn4c3)c3nccnc23)CC1 [Compound 192, N-{8-fluoro-2-methylimidazo[1,2-a]pyridin-6-yl}-8-{4-[(methylamino)methyl]piperidin-1-yl}quinoxaline-5-carboxamide trifluoroacetate] | 1 to 10 | C (C represents 1000-9999 nM)
25 | 0.1 to 1 | < 100 | 0.1 to 1 | COc1cnc2c(N3C[C@@H](C)N[C@@H](C)C3)ccc(C(=O)Nc3cc(F)c4nc(C)cn4c3)c2n1 [Compound 205, 8-[(3R,5S)-3,5-dimethylpiperazin-1-yl]-N-{8-fluoro-2-methylimidazo[1,2-a]pyridin-6-yl}-3-methoxyquinoxaline-5-carboxamide; trifluoroacetic acid] | 0.1 to 1 | B (B represents 100-1000 nM)
26 | 0.1 to 1 | 100 to 1000 | 0.1 to 1 | Cc1cn2nc(NC(=O)c3ccc(N4CCNCC4)c4ccnnc34)cc(C)c2n1 [Compound 100] | 0.1 to 1 | B (B represents 100-1000 nM)
